Some test systems named below: RXF 393 renal; SF-295 CNS; M14 melanoma; PC-3 prostate; SR leukemia; UO-31 renal; SF-268 CNS; SNB-19 CNS; 786-0 renal; LOX IMVI melanoma.
Common to all, as to experiment: NCI tumour cell line growth inhibition, 48 h

10 molecules from PubChem BioAssay (NCI) can be followed below.

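48-hour exposure; five concentrations; linearly interpolated endpoints. GI50 marks 50% less growth. Definition used: TGI = concentration required for complete inhibition of growth.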

With `Cn1cc(NC(=O)Nc2cc(C(=O)Nc3cc(C(=O)Nc4cc(S(=O)(=O)O)c5cc(S(=O)(=O)O)cc(S(=O)(=O)O)c5c4)n(C)c3)n(C)c2)cc1C(=O)Nc1cc(C(=O)Nc2cc(S(=O)(=O)O)c3cc(S(=O)(=O)O)cc(S(=O)(=O)O)c3c2)n(C)c1`, the TGI in the experiment on RXF 393 renal, with SF-295 CNS, in the experiment on M14 melanoma, with PC-3 prostate, with SR leukemia and in the experiment on UO-31 renal was greater than 100 µM in each case. The TGI with SF-268 CNS, in the experiment on SNB-19 CNS and in the experiment with 786-0 renal was greater than 100 µM throughout.
For `Cc1noc(/N=C2\C=C(Nc3onc(C)c3C)C(=O)c3ccccc32)c1C`, the TGI in the experiment on LOX IMVI melanoma, in the experiment with RXF 393 renal, in the experiment with SF-295 CNS, with M14 melanoma, in the experiment on SR leukemia and with UO-31 renal was greater than 100 µM in each case. Also, the TGI in the experiment with SF-268 CNS, in the experiment with SNB-19 CNS and in the experiment on 786-0 renal was greater than 100 µM each time.
For the molecule `O=C(c1ccc2ccccc2c1)c1c(C(F)(F)F)n([O-])c2ccc(F)cc2[n+]1=O`, the GI50 with LOX IMVI melanoma is 0.394 µM; in the experiment on RXF 393 renal, 0.283 µM; in the experiment on M14 melanoma it was 1.67 µM; in the experiment on PC-3 prostate, 1.55 µM; in the experiment on SR leukemia, 0.277 µM; with SF-268 CNS, 1.73 µM. Moreover, the figures for the GI50 in the experiment with SNB-19 CNS and in the experiment with 786-0 renal were 1.51 µM and 1.57 µM, respectively. For the same molecule, the TGI in the experiment with LOX IMVI melanoma amounted to 1.66 µM; in the experiment on RXF 393 renal, 0.958 µM; in the experiment with M14 melanoma, 3.11 µM; in the experiment on PC-3 prostate, 3.39 µM; in the experiment with SR leukemia, 1.49 µM; in the experiment with SF-268 CNS, 3.37 µM. For the same molecule, the TGI in the experiment with SNB-19 CNS came to 3.02 µM; in the experiment with 786-0 renal it was 3.01 µM.
With `CCCCCCCCCCSC(=N)N`, the GI50 was 2.76 µM in the experiment on LOX IMVI melanoma; 5.1 µM with RXF 393 renal; 1.72 µM in the experiment on SF-295 CNS; 1.89 µM in the experiment on M14 melanoma; 4.76 µM in the experiment on PC-3 prostate; 2.61 µM with UO-31 renal. For the same molecule, the GI50 in the experiment with SF-268 CNS was 4.2 µM; with SNB-19 CNS, 5.17 µM; with 786-0 renal, 4.92 µM. Also, the TGI with LOX IMVI melanoma is 9.37 µM; with RXF 393 renal, 17.6 µM; in the experiment with SF-295 CNS it was 3.51 µM; in the experiment on M14 melanoma it was 3.57 µM; in the experiment with PC-3 prostate, 17.5 µM; with UO-31 renal it was 12.4 µM. For the same molecule, the TGI with SF-268 CNS worked out at 17 µM; in the experiment with SNB-19 CNS, 19.2 µM; in the experiment with 786-0 renal, 19.5 µM.
In the case of `CN=C(N)N/N=C(\C)c1ccc2c(c1)Cc1ccccc1-2`, the GI50 in the experiment on RXF 393 renal is 4.06 µM; with SF-295 CNS it was 1.9 µM; in the experiment on M14 melanoma, 1.65 µM; with PC-3 prostate it was 2.39 µM; in the experiment on UO-31 renal it was 1.43 µM; in the experiment with SF-268 CNS, 2.13 µM. Further, the GI50 in the experiment with SNB-19 CNS was 3.46 µM; with 786-0 renal, 1.86 µM. Also, the TGI in the experiment on RXF 393 renal was found to be 66.5 µM; in the experiment on SF-295 CNS it was 4.32 µM; in the experiment on M14 melanoma, 3.02 µM; in the experiment with PC-3 prostate it was 10.3 µM; in the experiment with UO-31 renal, 2.89 µM; with SF-268 CNS it was 5.25 µM. In addition, the TGI came out at 21.8 µM with SNB-19 CNS and 3.74 µM with 786-0 renal.
As to `COc1ccc2c([nH]c3c(O)c(-c4c(C)cc5c([nH]c6c(CC=C(C)C)c(OC)ccc65)c4O)c(C)cc32)c1CC=C(C)C`, the TGI in the experiment on LOX IMVI melanoma, with RXF 393 renal, with SF-295 CNS, with M14 melanoma, in the experiment with SR leukemia and in the experiment on UO-31 renal was greater than 100 µM throughout. The TGI with SF-268 CNS, in the experiment with SNB-19 CNS and in the experiment with 786-0 renal was greater than 100 µM in each case.
For the molecule `CCCN1CCC=C(c2ccc(Nc3nc(Nc4ccccc4C(N)=O)c4cc[nH]c4n3)c(C)c2)C1`, the GI50 in the experiment with LOX IMVI melanoma is 1.77 µM; in the experiment with RXF 393 renal, 11 µM; in the experiment on SF-295 CNS it was greater than 25 µM; in the experiment with M14 melanoma it was 4.77 µM; with PC-3 prostate it was greater than 23.4 µM; in the experiment with UO-31 renal, 2.98 µM. Moreover, the GI50 with SF-268 CNS is greater than 25 µM; with SNB-19 CNS, greater than 25 µM; in the experiment on 786-0 renal, 17.3 µM. For the same molecule, the TGI in the experiment with LOX IMVI melanoma, with RXF 393 renal, with SF-295 CNS, with M14 melanoma, with PC-3 prostate and with UO-31 renal was greater than 25 µM each time. Besides, the TGI in the experiment with SF-268 CNS, in the experiment on SNB-19 CNS and in the experiment with 786-0 renal was greater than 25 µM each time.
For `Cc1cc(Nc2nc(-c3ccncc3)nc3ccccc23)n[nH]1`, the GI50 in the experiment with LOX IMVI melanoma is 2.69 µM; in the experiment on RXF 393 renal it was 0.91 µM; in the experiment on SF-295 CNS, 17.4 µM; in the experiment with M14 melanoma, 10.3 µM; in the experiment on SR leukemia, 1.72 µM; with UO-31 renal, 1.23 µM. The figures for the GI50 with SF-268 CNS, in the experiment on SNB-19 CNS and in the experiment with 786-0 renal were 5.62 µM, 83.1 µM and 2.98 µM, respectively. The TGI with LOX IMVI melanoma is greater than 100 µM; in the experiment with RXF 393 renal, 9.29 µM; in the experiment on SF-295 CNS it was greater than 100 µM; with M14 melanoma it was greater than 100 µM; with SR leukemia it was 47.7 µM; with UO-31 renal, greater than 100 µM. In addition, the TGI in the experiment with SF-268 CNS, with SNB-19 CNS and in the experiment on 786-0 renal was greater than 100 µM throughout.
With `O=C(/C=C/c1ccccc1)CCC1C(=O)NC(=S)NC1=O`, the TGI with LOX IMVI melanoma, with RXF 393 renal, in the experiment with SF-295 CNS, in the experiment with M14 melanoma, in the experiment on PC-3 prostate and with UO-31 renal was greater than 100 µM in each case. Moreover, the TGI in the experiment with SF-268 CNS, in the experiment with SNB-19 CNS and in the experiment with 786-0 renal was greater than 100 µM in each case.
Take `Nc1ccn(C2OC(C(OC3OC(CO)C(O)C(N)C3O)C(O)C(O)C(O)C(O)CO)C(N)C(O)C2O)c(=O)n1` (stereo unspecified): the TGI in the experiment on LOX IMVI melanoma is greater than 100 µM; in the experiment on SF-295 CNS, 58 µM; in the experiment on M14 melanoma, greater than 100 µM; with PC-3 prostate it was greater than 100 µM; with SR leukemia, greater than 100 µM; in the experiment with UO-31 renal, greater than 100 µM. Also, the TGI with SF-268 CNS was 68.6 µM; in the experiment with SNB-19 CNS, greater than 100 µM; in the experiment on 786-0 renal, greater than 100 µM.
